Our source for the IC50 values is patent US8017612B2, “Piperazine compound and use thereof as a HCV polymerase inhibitor” (priority 2006, dated 2011).

Assay [1] addresses T1, HCV polymerase (NS5B) type 1b (Hepatitis C virus genotype 1b, UniProt P26663).
T1 construct: a region encoding NS5B (J Virol 1991 March, 65(3), 1105-13, 544 amino acids after deletion of 47 amino acids on the C-terminal); 6xHis (C); made in house; host or cells: Escherichia coli
The assay can be described thus: Assay of enzyme (HCV polymerase) inhibitory activity, type 1b enzyme. The format is biochemical, HCV BK strain (type 1b). An outline of the steps:
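His-tagged, C-terminally truncated NS5B (BK strain, 1b; 0.5 μg/ml) incubated with compound 60 min at 25 °C on 3′UTR-derived substrate RNA (5 μg/ml), 50 μM ATP/GTP/CTP, 2 μM UTP plus [3H]UTP, pH 7.5. Acid-precipitated RNA counted; IC50 from radioactivity with and without compound.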

The target in assay [2] is T2, HCV polymerase (NS5B) type 1a (Hepatitis C virus genotype 1a, UniProt P26664).
T2 construct: made in house; host or cells: Escherichia coli (by the 'similar method' of the 1b enzyme)
The assay can be described thus: Assay of enzyme (HCV polymerase) inhibitory activity, type 1a enzyme. The format is biochemical, HCV type 1a (cloned from the blood of patients). The procedure, abridged:
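His-tagged NS5B, C-terminal 47 residues deleted, type 1a at 1.5 μg/ml, with 5 μg/ml HCV 3′UTR substrate RNA, 50 μM ATP/GTP/CTP, 2 μM UTP plus [3H]UTP, pH 7.5 Tris, 5 mM MgCl2; 60 min at 25° C. TCA-precipitated RNA counted by scintillation; IC50 from radioactivity with vs. without compound.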

[3] abbreviates: HCV polymerase inhibitory activity IC50, 1b, type 1b enzyme.
[4] abbreviates: HCV polymerase inhibitory activity IC50, 1a, type 1a enzyme.
[5] abbreviates: HCV polymerase inhibitory activity (IC50), 1b, type 1b enzyme 0.5 μg/ml, 25° C., 60 min.
The mark [6] stands for this setting: HCV polymerase inhibitory activity (IC50), 1a, type 1a enzyme 1.5 μg/ml, 25° C., 60 min.

The term IC50 denotes the point on the concentration scale where inhibition reaches its midpoint.

`COCC(C)(C)c1ccc(CNC(=O)[C@H]2CN(c3nc4cn[nH]c(=O)c4s3)CCN2S(=O)(=O)c2ccc(OC(F)(F)F)cc2)cc1` [Example 851, (R)-4-(7-oxo-6,7-dihydro-thiazolo[4,5-d]pyridazin-2-yl)-1-(4-trifluoromethoxy-benzenesulfonyl)-piperazine-2-carboxylic acid 4-(2-methoxy-1,1-dimethyl-ethyl)-benzylamide]: the IC50 in assay [1] (setting [3]) and in assay [2] (setting [4]) was under 0.1 µM in each case.
As for `O=C(NCc1ccc(OC(F)(F)F)cc1)[C@H]1CN(c2nc3nnnc(NCCO)c3s2)CCN1S(=O)(=O)c1ccc(OC(F)(F)F)cc1` [Example 1002, (R)-4-[4-(2-hydroxy-ethylamino)-thiazolo[4,5-d][1,2,3]triazin-6-yl]-1-(4-trifluoromethoxy-benzenesulfonyl)-piperazine-2-carboxylic acid 4-trifluoromethoxy-benzylamide], the IC50 in assay [1] (setting [3]) and in assay [2] (setting [4]) was under 0.1 µM throughout.
Consider `CC(=O)N1CCN(S(=O)(=O)c2ccc(C(C)C)cc2)C(C(=O)NCc2ccc(OC(F)(F)F)cc2)C1` (stereo not drawn) [Example 53, 4-acetyl-1-(4-isopropyl-benzenesulfonyl)-piperazine-2-carboxylic acid 4-trifluoromethoxy-benzylamide], for which the IC50 in assay [1] (setting [5]) and in assay [2] (setting [6]) was 0.1 to 1 µM in each case.
As to `CSc1ccc(CNC(=O)[C@H]2CN(c3cnc4cncnc4n3)CCN2S(=O)(=O)c2ccc(OC(F)(F)F)cc2)cc1` [Example 661, (R)-4-pteridin-7-yl-1-(4-trifluoromethoxy-benzenesulfonyl)-piperazine-2-carboxylic acid 4-methylsulfanyl-benzylamide], the IC50 in assay [1] (setting [3]) and in assay [2] (setting [4]) was under 0.1 µM throughout.
With `CC(C)c1ccc(CNC(=O)[C@H]2CN(c3cnc(C(=O)O)cn3)CCN2S(=O)(=O)c2ccc(OC(F)(F)F)cc2)cc1` [Example 385, (R)-3-(4-isopropyl-benzylcarbamoyl)-4-(4-trifluoromethoxy-benzenesulfonyl)-3,4,5,6-tetrahydro-2H-[1,2′]bipyrazinyl-5′-carboxylic acid], the IC50 in assay [1] (setting [5]) and in assay [2] (setting [6]) was under 0.1 µM each time.
As for `C#Cc1ncc2sc(N3CCN(S(=O)(=O)c4ccc(OC(F)(F)F)cc4)[C@@H](C(=O)NCc4ccc(OC(F)(F)F)cc4)C3)nc2n1` [Example 995, (R)-4-(5-ethynyl-thiazolo[4,5-d]pyrimidin-2-yl)-1-(4-trifluoromethoxy-benzenesulfonyl)-piperazine-2-carboxylic acid 4-trifluoromethoxy-benzylamide], the concentration for half-maximal inhibition (IC50) in assay [1] (setting [3]) and in assay [2] (setting [4]) was under 0.1 µM in each case.
Regarding `COC(=O)c1ccc(N2CCN(S(=O)(=O)c3ccc(C(F)(F)F)cc3)[C@@H](C(=O)NCc3ccc(C(C)C)cc3)C2)nc1` [Example 303, 6-[(R)-3-(4-isopropyl-benzylcarbamoyl)-4-(4-trifluoromethyl-benzenesulfonyl)-piperazin-1-yl]-nicotinic acid methyl ester], the IC50 in assay [1] (setting [5]) and in assay [2] (setting [6]) was under 0.1 µM throughout.
As for `Cc1nc(N2CCN(S(=O)(=O)c3ccc(OC(F)(F)F)cc3)[C@@H](C(=O)NCc3ccc(C(C)(C)C)cc3)C2)sc1-c1nnn[nH]1` [Example 583, (R)-4-[4-methyl-5-(1H-tetrazol-5-yl)-thiazol-2-yl]-1-(4-trifluoromethoxy-benzenesulfonyl)-piperazine-2-carboxylic acid 4-tert-butyl-benzylamide], the IC50 in assay [1] (setting [5]) and in assay [2] (setting [6]) was under 0.1 µM throughout.
`CCCc1ccc(CNC(=O)[C@H]2CN(c3nc(CO)cs3)CCN2S(=O)(=O)c2ccc(OC(F)(F)F)cc2)cc1` [Example 510, (R)-4-(4-hydroxymethyl-thiazol-2-yl)-1-(4-trifluoromethoxy-benzenesulfonyl)-piperazine-2-carboxylic acid 4-propyl-benzylamide]: the IC50 in assay [1] (setting [5]) and in assay [2] (setting [6]) was under 0.1 µM throughout.
As for `CC(=O)N1CCN(S(=O)(=O)c2ccc3c(c2)CCC3)[C@@H](C(=O)NCc2ccc(C(C)C)cc2)C1` [Example 204, (R)-4-acetyl-1-(indane-5-sulfonyl)-piperazine-2-carboxylic acid 4-isopropyl-benzylamide], the concentration for half-maximal inhibition (IC50) in assay [1] (setting [5]) and in assay [2] (setting [6]) was 0.1 to 1 µM in each case.
Take `CCC(F)(F)c1ccc(CNC(=O)[C@H]2CN(c3cnc4cncnc4n3)CCN2S(=O)(=O)c2ccc(OC)cc2)cc1` [Example 747, (R)-1-(4-methoxy-benzenesulfonyl)-4-pteridin-7-yl-piperazine-2-carboxylic acid 4-(1,1-difluoro-propyl)-benzylamide]: the IC50 in assay [1] (setting [3]) and in assay [2] (setting [4]) was under 0.1 µM throughout.
As to `CC(C)c1ccc(CNC(=O)[C@H]2CN(C(=O)Nc3ccncc3)CCN2S(=O)(=O)c2ccc(OC(F)(F)F)cc2)cc1` [Example 318, (R)-4-(4-trifluoromethoxy-benzenesulfonyl)-piperazine-1,3-dicarboxylic acid 3-(4-isopropyl-benzylamide) 1-pyridin-4-ylamide], the IC50 in assay [1] (setting [5]) and in assay [2] (setting [6]) was under 0.1 µM each time.
For the compound `CCNC(=O)N1CCc2nc(N3CCN(S(=O)(=O)c4ccc(OC(F)(F)F)cc4)[C@@H](C(=O)NCc4ccc(C(C)(C)C)cc4)C3)sc2C1` [Example 601, 2-[(R)-3-(4-tert-butyl-benzylcarbamoyl)-4-(4-trifluoromethoxy-benzenesulfonyl)-piperazin-1-yl]-6,7-dihydro-4H-thiazolo[5,4-c]pyridine-5-carboxylic acid ethylamide], the IC50 in assay [1] (setting [5]) and in assay [2] (setting [6]) was under 0.1 µM in each case.
With `COC(=O)N1CCN(S(=O)(=O)c2ccc(C(C)C)cc2)C(C(=O)NCc2ccc(C(F)(F)F)cc2)C1` (stereo not drawn) [Example 32, 4-(4-isopropyl-benzenesulfonyl)-3-(4-trifluoromethyl-benzylcarbamoyl)-piperazine-1-carboxylic acid methyl ester], the concentration for half-maximal inhibition (IC50) in assay [1] (setting [5]) and in assay [2] (setting [6]) was over 1 µM in each case.
Consider `CC(C)c1ccc(CNC(=O)[C@H]2CN(C(=O)Cc3c[nH]cn3)CCN2S(=O)(=O)c2ccc(C(F)(F)F)cc2)cc1` [Example 195, (R)-4-(2-1H-imidazol-4-yl-acetyl)-1-(4-trifluoromethyl-benzenesulfonyl)-piperazine-2-carboxylic acid 4-isopropyl-benzylamide], for which the IC50 in assay [1] (setting [5]) and in assay [2] (setting [6]) was 0.1 to 1 µM in each case.
Take `O=C(NCc1ccc(OC(F)(F)F)cc1)[C@H]1CN(c2nc3cn[nH]c(=O)c3s2)CCN1S(=O)(=O)c1ccc(OC(F)(F)F)cc1` [Example 805, (R)-4-(7-oxo-6,7-dihydrothiazolo[4,5-d]pyridazin-2-yl)-1-(4-trifluoromethoxy-benzenesulfonyl)-piperazine-2-carboxylic acid 4-trifluoromethoxy-benzylamide]: the IC50 in assay [1] (setting [3]) and in assay [2] (setting [4]) was under 0.1 µM each time.
With `Cc1nc2nc(N3CCN(S(=O)(=O)c4ccc(OC(F)(F)F)cc4)[C@@H](C(=O)NCc4ccc(OC(F)(F)F)cc4)C3)sc2c(=O)[nH]1` [Example 910, (R)-4-(5-methyl-7-oxo-6,7-dihydro-thiazolo[4,5-d]pyrimidin-2-yl)-1-(4-trifluoromethoxy-benzenesulfonyl)-piperazine-2-carboxylic acid 4-trifluoromethoxy-benzylamide], the concentration for half-maximal inhibition (IC50) in assay [1] (setting [3]) and in assay [2] (setting [4]) was under 0.1 µM throughout.
With `CCOC(=O)c1nnc(NC(=O)N2CCN(S(=O)(=O)c3ccc(OC(F)(F)F)cc3)[C@@H](C(=O)NCc3ccc(C(F)(F)CC)cc3)C2)s1` [Example 477, 5-{[(R)-3-[4-(1,1-difluoro-propyl)-benzylcarbamoyl]-4-(4-trifluoromethoxy-benzenesulfonyl)-piperazine-1-carbonyl]-amino}-[1,3,4]thiadiazole-2-carboxylic acid ethyl ester], the IC50 in assay [1] (setting [5]) and in assay [2] (setting [6]) was over 1 µM each time.
`CCC(F)(F)c1ccc(CNC(=O)[C@H]2CN(c3cnc4cncnc4n3)CCN2S(=O)(=O)c2ccc([C@H]3CC[C@H](CC(=O)O)CC3)cc2)cc1` [Example 744, trans-[4-(4-{(R)-2-[4-(1,1-difluoro-propyl)-benzylcarbamoyl]-4-pteridin-7-yl-piperazine-1-sulfonyl}-phenyl)-cyclohexyl]-acetic acid]: the IC50 in assay [1] (setting [3]) and in assay [2] (setting [4]) was under 0.1 µM throughout.
In the case of `O=C(NCc1nc2ccccc2o1)[C@H]1CN(c2cnc3cncnc3n2)CCN1S(=O)(=O)c1ccc(OC(F)(F)F)cc1` [Example 639, (R)-4-pteridin-7-yl-1-(4-trifluoromethoxy-benzenesulfonyl)-piperazine-2-carboxylic acid (benzoxazol-2-ylmethyl)-amide], the IC50 in assay [1] (setting [5]) is 0.1 to 1 µM; in assay [2] (setting [6]), over 1 µM.
As to `CCCc1ccc(CNC(=O)[C@H]2CN(c3nc(C)c(C(=O)O)s3)CCN2S(=O)(=O)c2ccc(OC(F)(F)F)cc2)cn1` [Example 388, 4-methyl-2-[(R)-3-[(6-propyl-pyridin-3-ylmethyl)-carbamoyl]-4-(4-trifluoromethoxy-benzenesulfonyl)-piperazin-1-yl]-thiazole-5-carboxylic acid], the half-inhibitory concentration (IC50) was under 0.1 µM in assay [1] (setting [5]) and 0.1 to 1 µM in assay [2] (setting [6]).
